According to US20250195504A1, “NALTREXAMINE DERIVATIVES BEARING 5-MEMBER HETEROCYCLIC RING SYSTEMS AND OPIOID RECEPTOR MODULATORS” (VIRGINIA COMMONWEALTH UNIVERSITY, priority 2022, published 2025):
Where a name gives a salt, the structure may show the parent alone. Read-outs that look alike come from different tables or passages of the source.

Tests used:
male Swiss Webster mice [1] = experiment: warm-water tail immersion assay, antagonism of morphine's antinociception; format: in vivo, mouse; settings: for Tail flick assay (dose response) AD50: 95% CL
Procedure: Following this single dose assessment, in vivo dose-response studies with eight identified antagonists were conducted.
(§1) Antinociceptive effect of synthesized compounds was determined using the warm-water tail immersion assay. Swiss Webster mice (six male mice for each group, 25-35 g, 6-8 weeks old) were used in this assay. Antinociception for all compounds was examined in male Swiss Webster mice. […] To prevent tissue damage, a 10 s maximum cutoff time was imposed. Antinociceptive response was calculated as the percentage of maximum possible effect (% MPE), where % MPE=[(test−control latency)/(10−control latency)]×100.
(§2) Warm-water tail immersion assay is a well-established assay for evaluating opioid analgesics, especially MOR agonists. […] In this context, all 24 compounds were first evaluated for their acute antinociception tail-withdrawal assay (FIG. 5A).
(§3) The tail-withdrawal test was performed using a water bath with the temperature maintained at 56±0.1° C. Baseline latency was measured before any injections. Each mouse was gently wrapped in a cloth with only the tail exposed. The distal one-third of the tail was immersed perpendicularly in water, and the mouse rapidly flicked the tail from the bath was seen as the first sign of discomfort. The duration of time the tail remained in the water bath was counted as the baseline latency. Untreated mice with baseline latency reaction times ranging from 2 to 4 seconds were used. Test latency was obtained 20 min later after each injection. A 10-second maximum cutoff latency was used to prevent any tissue damage. Antinociception was quantified as the percentage of maximal possible effect (% MPE), which was calculated as % MPE=[(test latency−control latency)/(10−control latency)]×100. The % MPE value was calculated for each mouse using 6 mice per group. Testing compounds were given 10 mg/kg (s.c.) to each mouse.

KOR = KOR (Mus musculus, UniProt P33534); experiment: KOR [35S]GTPγS binding assay; format: biochemical; design: expressed in transfected cells; host or cells: CHO; settings: for Emax: read-out: 35S-GTP[γS]-Binding KOR Efficacy (% max of U50, 488H)
Procedure: The [^35S]GTPγS functional assay was conducted to determine the efficacy of the compounds at the MOR, KOR and DOR. […] The Bradford protein assay was utilized to determine and adjust the concentration of protein required for the assay. Nonspecific binding was determined with 20 μM unlabeled GTPγS. Furthermore, 3 μM DAMGO/U50488H/SNC80 was included in the assay as the maximally effective concentration of a full agonist for the MOR/KOR/DOR. After incubation, the bound radioactive ligand was separated from the free radioligand by filtration through a GF/B glass fiber filter paper using a Brandel harvester. Bound radioactivity was determined by liquid scintillation counting. All assays were determined in duplicate and repeated at least three times. Net stimulated [^35S]GTPγS binding was defined as agonist-stimulated minus basal binding in the absence of agonist. Percent of DAMGO/U50488H/SNC80 stimulated [^35S]GTPγS binding was defined as (net-stimulated binding by ligand/net-stimulated binding by 3 μM DAMGO U50488H/SNC80)×100%.

hα1D = hα1D (Homo sapiens, UniProt P25100); experiment: side effect profiling, hα1D; format: binding
hNOP = hNOP (Homo sapiens, UniProt P41146); experiment: side effect profiling, hNOP; format: binding; settings: for hNOP binding: at 10 uM
Potassium channel hERG = Potassium channel hERG (Homo sapiens, UniProt Q12809); experiment: side effect profiling, hERG channel; settings: for hERG channel binding: at 10 uM
CYP2C19 = CYP2C19 (Homo sapiens, UniProt P33261); experiment: CYP450 enzyme testing, CYP2C19
[2] = system: self-administration rat model; experiment: Self-administration Studies, Food vs Drug (heroin choice); format: in vivo
hNK1 = hNK1 (Homo sapiens, UniProt P25103); experiment: side effect profiling, hNK1; format: binding; settings: at 10 uM
hERG channel = hERG channel (Homo sapiens, UniProt Q12809); experiment: hERG channel testing
[3] = Protein Binding (plasma), human
[4] = system: Serotonin receptor, dopamine receptor, biogenic amine transporters; experiment: side effect profiling panel binding; settings: up to 10 μM, except the targets listed
male Swiss Webster mice [5] = experiment: warm-water tail immersion (tail flick / tail-withdrawal) assay, antinociception; format: in vivo, mouse; settings: mice
Procedure: In this assay, the duration for which mice kept their tails in the warm water was recorded.
All thirty-six compounds' antinociception were examined in tail immersion assay first to preclude any opioid receptor agonists.
as §1, with “Swiss” for “Antinociceptive effect of synthesized compounds was determined using the warm-water tail immersion assay. Swiss”
as §2, §3

h5-HT1b = h5-HT1b (Homo sapiens, UniProt P28222); experiment: side effect profiling, h5-HT1b; format: binding; settings: for h5-HT1b binding: at 10 uM
morphine-pelleted mice = experiment: opioid withdrawal study in morphine-pelleted mice; settings: for Withdrawal study: wet-dog shakes, escape jumps, paw tremors: 1 mg/kg dose, compared to 1 mg/kg naloxone; for withdrawal symptoms (wet-dog shakes, escape jumps, paw tremors): 1 mg/kg s.c., compared to 1 mg/kg NLX; for withdrawal symptoms at higher doses: 5 mg/kg and above, s.c.
MOR-CHO cells = biological target: T1, MOR-CHO cells (Mus musculus, UniProt P42866); experiment: Calcium flux on MOR-CHO cells, acting as antagonists against DAMGO; format: cell-based
T1 construct: expressed in transfected cells; host or cells: CHO

hM4 = biological target: T2, hM4 (Homo sapiens, UniProt P08173); experiment: side effect profiling, hM4; format: binding; settings: for hM4 binding: at 10 uM
T2 sequence (P08173 1-479): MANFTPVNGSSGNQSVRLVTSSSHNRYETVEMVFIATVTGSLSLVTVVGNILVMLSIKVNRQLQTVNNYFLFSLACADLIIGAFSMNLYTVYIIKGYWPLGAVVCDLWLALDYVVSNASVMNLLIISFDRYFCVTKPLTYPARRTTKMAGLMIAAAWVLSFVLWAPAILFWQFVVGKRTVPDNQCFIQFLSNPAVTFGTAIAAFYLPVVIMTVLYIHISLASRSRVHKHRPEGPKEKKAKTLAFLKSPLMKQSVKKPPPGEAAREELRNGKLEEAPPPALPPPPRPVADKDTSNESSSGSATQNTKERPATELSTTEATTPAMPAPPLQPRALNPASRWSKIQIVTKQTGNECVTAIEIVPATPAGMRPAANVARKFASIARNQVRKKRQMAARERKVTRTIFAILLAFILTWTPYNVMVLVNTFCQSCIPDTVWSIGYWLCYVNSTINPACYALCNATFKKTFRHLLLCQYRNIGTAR

Chain of h5-HT1b (P28222 whole entry): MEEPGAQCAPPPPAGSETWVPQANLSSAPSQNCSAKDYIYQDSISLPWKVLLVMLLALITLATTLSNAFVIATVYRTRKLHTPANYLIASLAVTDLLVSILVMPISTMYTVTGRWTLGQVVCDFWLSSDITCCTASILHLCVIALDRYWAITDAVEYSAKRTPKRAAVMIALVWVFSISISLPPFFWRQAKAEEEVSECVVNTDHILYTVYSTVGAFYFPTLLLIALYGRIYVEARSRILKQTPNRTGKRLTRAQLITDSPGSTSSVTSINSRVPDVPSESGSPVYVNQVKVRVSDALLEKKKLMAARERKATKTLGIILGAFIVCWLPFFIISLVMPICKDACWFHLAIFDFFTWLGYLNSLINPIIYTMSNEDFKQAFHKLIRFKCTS
Chain of CYP2C19 (P33261 whole entry): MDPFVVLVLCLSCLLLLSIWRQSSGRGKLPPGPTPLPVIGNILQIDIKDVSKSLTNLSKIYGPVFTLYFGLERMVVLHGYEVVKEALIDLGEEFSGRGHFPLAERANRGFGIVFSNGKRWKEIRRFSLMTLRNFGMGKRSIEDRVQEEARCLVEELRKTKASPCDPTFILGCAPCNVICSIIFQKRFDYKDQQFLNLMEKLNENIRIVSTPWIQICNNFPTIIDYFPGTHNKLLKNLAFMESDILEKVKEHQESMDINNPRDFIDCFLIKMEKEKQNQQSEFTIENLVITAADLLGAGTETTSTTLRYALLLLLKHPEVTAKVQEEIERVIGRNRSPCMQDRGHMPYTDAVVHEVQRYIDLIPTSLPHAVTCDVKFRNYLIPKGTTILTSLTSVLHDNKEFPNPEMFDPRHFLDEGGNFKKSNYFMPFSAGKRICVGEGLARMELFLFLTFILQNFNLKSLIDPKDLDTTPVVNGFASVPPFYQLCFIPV
Chain of Potassium channel hERG (Q12809 whole entry): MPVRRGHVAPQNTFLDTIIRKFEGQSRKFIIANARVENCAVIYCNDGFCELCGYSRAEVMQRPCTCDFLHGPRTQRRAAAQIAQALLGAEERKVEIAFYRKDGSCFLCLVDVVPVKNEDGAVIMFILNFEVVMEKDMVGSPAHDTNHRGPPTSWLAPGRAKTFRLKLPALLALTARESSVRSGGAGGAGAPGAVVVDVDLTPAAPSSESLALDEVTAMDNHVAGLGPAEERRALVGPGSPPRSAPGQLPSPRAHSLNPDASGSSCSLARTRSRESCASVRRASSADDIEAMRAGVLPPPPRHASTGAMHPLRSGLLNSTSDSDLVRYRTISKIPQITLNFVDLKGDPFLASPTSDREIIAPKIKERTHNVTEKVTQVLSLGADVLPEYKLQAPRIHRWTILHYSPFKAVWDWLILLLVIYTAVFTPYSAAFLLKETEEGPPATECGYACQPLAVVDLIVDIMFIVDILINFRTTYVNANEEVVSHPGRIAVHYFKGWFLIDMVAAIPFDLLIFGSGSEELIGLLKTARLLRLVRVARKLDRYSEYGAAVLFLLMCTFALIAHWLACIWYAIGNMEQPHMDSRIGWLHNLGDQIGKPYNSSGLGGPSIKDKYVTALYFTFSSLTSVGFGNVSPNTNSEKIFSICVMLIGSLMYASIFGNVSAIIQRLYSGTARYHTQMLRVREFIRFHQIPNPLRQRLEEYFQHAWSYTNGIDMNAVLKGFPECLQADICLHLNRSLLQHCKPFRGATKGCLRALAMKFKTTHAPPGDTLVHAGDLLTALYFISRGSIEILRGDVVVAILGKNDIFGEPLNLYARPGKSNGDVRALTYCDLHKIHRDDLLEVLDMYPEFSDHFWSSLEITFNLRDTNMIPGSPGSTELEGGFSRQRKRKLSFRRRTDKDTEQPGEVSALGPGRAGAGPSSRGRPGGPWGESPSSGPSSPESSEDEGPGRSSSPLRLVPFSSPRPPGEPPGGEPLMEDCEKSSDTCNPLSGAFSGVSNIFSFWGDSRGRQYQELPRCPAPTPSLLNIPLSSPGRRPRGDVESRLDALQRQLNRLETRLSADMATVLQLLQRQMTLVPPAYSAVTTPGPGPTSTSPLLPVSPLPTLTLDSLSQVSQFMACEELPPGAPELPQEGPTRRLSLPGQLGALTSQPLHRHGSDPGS
Chain of hERG channel (Q12809 whole entry): as above
Chain of KOR (P33534 whole entry): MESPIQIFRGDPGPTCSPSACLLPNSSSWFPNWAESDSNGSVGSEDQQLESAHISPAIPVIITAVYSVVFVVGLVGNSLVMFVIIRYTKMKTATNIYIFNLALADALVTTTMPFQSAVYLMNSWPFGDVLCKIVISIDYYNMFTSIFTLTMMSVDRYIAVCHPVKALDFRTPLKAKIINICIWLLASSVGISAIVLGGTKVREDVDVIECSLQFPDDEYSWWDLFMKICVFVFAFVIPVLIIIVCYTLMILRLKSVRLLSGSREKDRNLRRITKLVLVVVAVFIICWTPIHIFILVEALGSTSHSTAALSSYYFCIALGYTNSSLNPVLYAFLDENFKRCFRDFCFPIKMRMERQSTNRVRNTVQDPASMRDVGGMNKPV
Chain of hNOP (P41146 whole entry): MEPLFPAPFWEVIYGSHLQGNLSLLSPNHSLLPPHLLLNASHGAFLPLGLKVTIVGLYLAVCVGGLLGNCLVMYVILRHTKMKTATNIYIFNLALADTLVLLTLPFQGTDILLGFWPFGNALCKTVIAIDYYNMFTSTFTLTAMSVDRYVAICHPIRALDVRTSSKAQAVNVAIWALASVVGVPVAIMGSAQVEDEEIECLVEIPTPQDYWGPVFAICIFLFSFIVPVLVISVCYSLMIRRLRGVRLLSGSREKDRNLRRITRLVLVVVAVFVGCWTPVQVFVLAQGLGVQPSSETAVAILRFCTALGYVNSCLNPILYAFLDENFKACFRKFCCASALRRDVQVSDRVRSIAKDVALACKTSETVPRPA
T1 sequence (P42866 whole entry): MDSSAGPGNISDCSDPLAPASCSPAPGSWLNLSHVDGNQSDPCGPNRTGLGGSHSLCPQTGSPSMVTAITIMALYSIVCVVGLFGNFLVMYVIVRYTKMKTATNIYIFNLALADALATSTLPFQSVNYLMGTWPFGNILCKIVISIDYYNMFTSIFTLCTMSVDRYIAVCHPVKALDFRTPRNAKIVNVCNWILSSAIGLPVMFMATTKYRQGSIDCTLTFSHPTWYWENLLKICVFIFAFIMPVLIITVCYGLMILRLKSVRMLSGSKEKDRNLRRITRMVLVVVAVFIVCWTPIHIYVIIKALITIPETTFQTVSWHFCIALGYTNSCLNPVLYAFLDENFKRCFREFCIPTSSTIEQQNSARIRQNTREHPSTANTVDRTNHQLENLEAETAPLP
Chain of hNK1 (P25103 whole entry): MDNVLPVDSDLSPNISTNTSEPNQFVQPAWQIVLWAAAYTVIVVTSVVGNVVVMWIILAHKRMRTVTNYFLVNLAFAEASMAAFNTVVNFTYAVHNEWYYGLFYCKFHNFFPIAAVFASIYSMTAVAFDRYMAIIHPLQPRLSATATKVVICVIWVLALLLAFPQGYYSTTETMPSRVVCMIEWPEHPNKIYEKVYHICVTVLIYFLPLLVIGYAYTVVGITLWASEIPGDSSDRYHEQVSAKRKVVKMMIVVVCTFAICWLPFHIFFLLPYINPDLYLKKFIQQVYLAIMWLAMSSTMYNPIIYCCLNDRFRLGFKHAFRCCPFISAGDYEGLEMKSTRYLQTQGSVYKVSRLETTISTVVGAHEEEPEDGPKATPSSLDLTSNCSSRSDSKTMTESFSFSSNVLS

SMILES	Tail flick assay (dose response) AD50 (male Swiss Webster mice [1]; mice)	Emax (KOR) [%]	Ki (hNOP) [nM]	hNOP binding (hNOP) [%]	hERG channel binding (Potassium channel hERG)	Self-administration Studies Food vs Drug [2]	hNK1 binding (hNK1)	hERG channel testing (Eurofins) (hERG channel)	fraction unbound [3]	side effect profiling, binding to panel [4]	h5-HT1b binding (h5-HT1b)	Withdrawal study: wet-dog shakes, escape jumps, paw tremors (morphine-pelleted mice)	IC50 (MOR-CHO cells) [nM]	hM4 binding (hM4)	withdrawal symptoms (wet-dog shakes, escape jumps, paw tremors) (morphine-pelleted mice)	withdrawal symptoms at higher doses (morphine-pelleted mice)	other results
O=C(N[C@H]1CCC2(O)C3Cc4ccc(O)c5c4[C@@]2(CCN3CC2CC2)[C@H]1O5)c1ccc[nH]1 (stereo partly drawn) [Example 1 compound 1, 17-Cyclopropylmethyl-3,14β-dihydroxy-4,5α-epoxy-6a-[(2′-pyrrolyl)carboxamido]morphinan hydrochloride]	The AD50 of NAY was determined as 4.71 (1.61- mg/kg	43.4 ± 1.36	1440	59	Potassium channel hERG (52% at 10 uM),	reduce heroin choice and increase food choice	89%	2.6 µM	0.43	No significant binding up	85%	At 1 mg/kg dose of NAY produced NO wet-dog	–	–	–	–	Ki (hα1D): 771 nM; hα1D binding (hα1D; at 10 uM): 84%; Ki (Potassium channel hERG): 8600 nM; CYP2C19 inhibition (in words) (CYP2C19; human): Only moderate at CYP2D6 and CYP2C19; hERG channel testing (NIH) (hERG channel; NIH): 12.5 µM; Tail flick assay, anti-nociceptive effect (in words) (male Swiss Webster mice [5]; single dose, dose printed with the value): No anti-nociceptive effect up to 100 mg/kg.; Ki (h5-HT1b): 482 nM
O=C(N[C@H]1CC[C@@]2(O)[C@H]3Cc4ccc(O)c5c4[C@@]2(CCN3CC2CC2)[C@H]1O5)c1cccs1 [Example 1 compound 25, 17-Cyclopropylmethyl-3,14β-dihydroxy-4,5α-epoxy-6α-(2′-thienylcarboxamido)morphinan hydrochloride]	–	50.6 ± 0.95	6400	60	–	–	–	2.5 µM (Eurofins)	0.63	–	–	–	26.7	61%	significantly fewer wet-dog shakes, escape jumps, and paw tremors	started showing wet dog shakes and jumps at a 5 mg/kg dose	CYP2C19 inhibition (CYP2C19): Only CYP2C19 inhibition (~3 uM); Tail flick assay, percentage maximum possible effect (% MPE) (male Swiss Webster mice [5]; single dose 10 mg/kg): effect (% MPE) of NAT (10 mg/kg) was 15.2; Ki (hM4): 4900 nM; Withdrawal study: wet-dog shakes, escape jumps, paw tremors at high dose (morphine-pelleted mice; high dose (5 to 20 mg/kg), compared to naloxone at 1 mg/kg, listed as NAT, hydrochloride): lower compared to naloxone at 1 mg/kg.
O=C(N[C@H]1CC[C@@]2(O)[C@H]3Cc4ccc(O)c5c4[C@@]2(CCN3CC2CC2)[C@H]1O5)c1ccsc1 [Example 1 compound 31, 17-Cyclopropylmethyl-3,14β-dihydroxy-4,5α-epoxy-6α-(3′-thienylcarboxamido)morphinan hydrochloride]	–	–	–	–	hERG channel (58% at 10 uM)	reduce heroin choice and increase food choice in a	hNK1 (80% at 10 uM)	1.3 µM (Eurofins)	0.4	–	h5-HT1b (98% at 10 uM)	produced significantly fewer wet-dog shakes,	28.9	hM4 (65% at 10 uM)	significantly fewer wet-dog shakes, escape jumps, and paw tremors	started showing wet dog shakes and jumps at a 5 mg/kg dose	antagonism of morphine's antinociceptive effect (in words) (male Swiss Webster mice [1]; Example 1 compounds, 10 mg/kg s.c. in the presence of morphine (10 mg/kg)): significantly antagonized morphine's antinociceptive effect; AD50 mg/kg (95% CL) to antagonize morphine mediated antinociception (male Swiss Webster mice [1]; Example 1 compounds, s.c., mice, morphine 10 mg/kg): 1.51 mg/kg; CYP2C19 inhibition (in words) (CYP2C19): Only moderate at CYP2D6 and CYP2C19
O=C(N[C@H]1CC[C@@]2(O)[C@H]3Cc4ccc(O)c5c4[C@@]2(CCN3CC2CC2)[C@H]1O5)c1nccs1 [NTZ, 17-Cyclopropylmethyl-3,14β-dihydroxy-4,5α-epoxy-6α-(2′-thiazolylcarboxamido)morphinan hydrochloride]	The AD50 of VZMN283 was determined as 0.043 mg/kg	23.5 ± 2.03	–	–	–	reduce heroin choice and increase food choice in a	–	7.4 µM (Eurofins)	0.56	No significant binding up	–	fewer symptoms than naloxone at the same dose.	–	hM4 (67% at 10 uM)	–	–	Tail flick assay, antagonism of morphine's antinociceptive effect (in words) (male Swiss Webster mice [1]; mice, single dose 10 mg/kg): significantly antagonized morphine's antinociceptive; EC50 (KOR; Tables A, B, read-out: 35S-GTP[γS]-Binding KOR Potency EC50): 3.83 ± 0.62 nM; Withdrawal study: precipitation of withdrawal syndromes (morphine-pelleted mice; up to 0.1 mg/kg): No significant precipitation of withdrawal syndromes
